Data reported in US5395947A, “Platinum(II) complex and processes for preparing the same” (Sunkyong Industries, Ltd., priority 1991, dated 1995).

Assays:
murine leukemia L1210 = experiment: Antitumor activity test on murine leukemia L1210 in vivo; set-up: species or system male BDF1 mice; settings: days 1, 5, 9
Procedure: 2. Antitumor activity test on murine leukemia L1210 in vivo
Murine leukemia L1210 cells were maintained in the peritoneal cavities of 6-week-old male DBA/2 mice by weekly transfer in accordance with the procedure described in cancer chemotherapy Reports, Part 3, 3(2), 7 (1972). Specifically, 1×10^6 leukemia cells were inoculated into the abdominal cavities of 6-week-old male BDF1 mice weighing 21±3 g on day 0. Each treatment group consisted of seven mice. The test compounds were dissolved or suspended in 0.5% carboxymethyl cellulose(CMC)solution (in water) and were administered intraperitoneally on days 1, 5, and 9 relative to the tumor inoculation.
Thirty mice of 6-week-old male BDF1 weighing 21±3 g were used as the control group, which were injected with 0.5% CMC solution only in the same manner as above.
Anti-tumor activities of the compounds were evaluated in terms of the T/C % values calculated from the mean survival time(T) of the compound-treated group over that(C) of the control group. [formula]

[1] = test system: murine leukemia L1210 cells; experiment: Growth inhibition test on cultured murine leukemia L1210 cells; type: cell-based; settings: 48 hours, 37° C., Trypan blue viability
Procedure: 1. Growth inhibition test on cultured murine leukemia L1210 cells
Murine leukemia L1210 cells(1×10^5) were treated with various concentrations of the compounds prepared in the above examples in RPMI 1640 medium supplemented with 10% fetal calf serum, and cultured in a 5% CO2 humidified incubator at 37° C. for 48 hours. Their viability, estimated by staining with 0.17% Trypan blue, was compared with that of control cells cultured in the identical medium without the compounds.

ICR mice = experiment: Acute toxicity test; type: in vivo; set-up: Lethality: unit not given here; settings: for Lethality: 10080 min
Procedure: 7-week-old ICR mice(male: 34±2 g; female: 31±2 g) were fed with solid food and water under the condition of 23±1° C. temperature and 65±5% humidity before the test.
Each treatment group consisted of 6 mice. The test compounds were administered intraperitoneally.
For 7 days after the administration, the appearance and the fate of the tested animals were recorded. The dead animals were subjected to autopsy and their visible pathological changes were observed. Their viscerals were stored in 10% formalin solution.

[2] = Test for water solubility; type: physicochemical; settings: 20° C.
Excerpt: 3. Test for water solubility
A standard plot of UV absorbance(220 nm) vs. concentration was made; and employed to determine water-solubility.
The mixture was then passed through a 0.45 micron disposable membrane filter before dilution and UV measurement.

CC(C)C1O[C@H](C[NH-])[C@@H](C[NH-])O1.O=C([O-])CC(=O)[O-].[Pt+4] (relative stereo) [Example 38, cis-malonato[(4R,5R)-4,5-bis(aminomethyl)-2-isopropyl-1,3-dioxolane]platinum(II)]
T/C (%) (murine leukemia L1210; 12.5 mg/kg i.p.): 123%
T/C (%) (murine leukemia L1210; 25 mg/kg i.p.): 148%
T/C (%) (murine leukemia L1210; 50 mg/kg i.p.): 220%
IC50 (concentration required for 50% inhibition of growth) [1]: 0.43 µg/mL

NC[C@H]1OCO[C@@H]1CN.O=C1C[O][Pt][O]1 [Example 1, (glycolato-O,O')[(4R,5R)-4,5-bis(aminomethyl)-1,3-dioxolane]platinum(II)]
T/C (%) (murine leukemia L1210; 3.1 mg/kg i.p.): 95%
T/C (%) (murine leukemia L1210; 6.2 mg/kg i.p.): 132%
T/C (%) (murine leukemia L1210; 12.5 mg/kg i.p.): 137%
T/C (%) (murine leukemia L1210; 25 mg/kg i.p.): 160%
T/C (%) (murine leukemia L1210; 50 mg/kg i.p.): toxic
IC50 (concentration required for 50% inhibition of growth) [1]: 0.36 µg/mL

CC1O[C@H](CN)[C@@H](CN)O1.O=C1C[O][Pt][O]1 [Example 5, (glycolato-O,O')[(4R,5R)-4,5-bis(aminomethyl)-2-methyl-1,3-dioxolane]platinum(II)]
T/C (%) (murine leukemia L1210; 3.1 mg/kg i.p.): 104%
T/C (%) (murine leukemia L1210; 6.2 mg/kg i.p.): 136%
T/C (%) (murine leukemia L1210; 12.5 mg/kg i.p.): 154%
T/C (%) (murine leukemia L1210; 50 mg/kg i.p.): toxic
IC50 (concentration required for 50% inhibition of growth) [1]: 0.35 µg/mL

CC1[O][Pt][O]C1=O.NCC1OCOC1CN [Example 13, (L-lactato-O,O')[(4R,5R)-4,5-bis(aminomethyl)-1,3-dioxolane]platinum(II)]
T/C (%) (murine leukemia L1210; 12.5 mg/kg i.p.): 178%
T/C (%) (murine leukemia L1210; 25 mg/kg i.p.): 207%
T/C (%) (murine leukemia L1210; 50 mg/kg i.p.): 92%
IC50 (concentration required for 50% inhibition of growth) [1]: 0.55 µg/mL

CC1(C)OC(CN)C(CN)O1.CC1[O][Pt][O]C1=O [Example 14, (L-lactato-O,O')[(4R,5R)-4,5-bis(aminomethyl)-2,2-dimethyl-1,3-dioxolane]platinum(II)]
T/C (%) (murine leukemia L1210; 12.5 mg/kg i.p.): 213%
T/C (%) (murine leukemia L1210; 25 mg/kg i.p.): toxic
T/C (%) (murine leukemia L1210; 50 mg/kg i.p.): toxic
IC50 (concentration required for 50% inhibition of growth) [1]: 0.46 µg/mL

CC1OC(CN)C(CN)O1.CC1[O][Pt][O]C1=O [Example 17, (L-lactato-O,O')[(4R,5R)-4,5-bis(aminomethyl)-2-methyl-1,3-dioxolane]platinum(II)]
T/C (%) (murine leukemia L1210; 12.5 mg/kg i.p.): 201%
T/C (%) (murine leukemia L1210; 25 mg/kg i.p.): 327%
T/C (%) (murine leukemia L1210; 50 mg/kg i.p.): 139%
IC50 (concentration required for 50% inhibition of growth) [1]: 0.44 µg/mL

CC1[O][Pt][O]C1=O.CCC1OC(CN)C(CN)O1 [Example 18, (L-lactato-O,O')[(4R,5R)-4,5-bis(aminomethyl)-2-ethyl-1,3-dioxolane]platinum(II)]
T/C (%) (murine leukemia L1210; 12.5 mg/kg i.p.): 206%
T/C (%) (murine leukemia L1210; 25 mg/kg i.p.): 165%
T/C (%) (murine leukemia L1210; 50 mg/kg i.p.): toxic
IC50 (concentration required for 50% inhibition of growth) [1]: 0.32 µg/mL
Number of dead mice for 7 days (ICR mice; female, 41.3 mg/kg i.p.): 3/6
Number of dead mice, 1st day (ICR mice; female, 41.3 mg/kg i.p.): 0/6
Number of dead mice, 5th day (ICR mice; female, 41.3 mg/kg i.p.): 1/6
Number of dead mice, 6th day (ICR mice; female, 41.3 mg/kg i.p.): 2/5
Lethality (ICR mice; female, 41.3 mg/kg i.p.): 55.0
Number of dead mice for 7 days (ICR mice; female, 54.9 mg/kg i.p.): 4/6
Number of dead mice, 1st day (ICR mice; female, 54.9 mg/kg i.p.): 0/6
Number of dead mice, 3rd day (ICR mice; female, 54.9 mg/kg i.p.): 1/6
Number of dead mice, 4th day (ICR mice; female, 54.9 mg/kg i.p.): 2/5
Number of dead mice, 5th day (ICR mice; female, 54.9 mg/kg i.p.): 1/3
Lethality (ICR mice; female, 54.9 mg/kg i.p.): 66.7
Number of dead mice for 7 days (ICR mice; female, 71.4 mg/kg i.p.): 5/6
Number of dead mice, 1st day (ICR mice; female, 71.4 mg/kg i.p.): 0/6
Number of dead mice, 4th day (ICR mice; female, 71.4 mg/kg i.p.): 1/6
Number of dead mice, 5th day (ICR mice; female, 71.4 mg/kg i.p.): 3/5
Number of dead mice, 6th day (ICR mice; female, 71.4 mg/kg i.p.): 1/2
Lethality (ICR mice; female, 71.4 mg/kg i.p.): 83.3
Number of dead mice for 7 days (ICR mice; female, 91.8 mg/kg i.p.): 6/6
Number of dead mice, 1st day (ICR mice; female, 91.8 mg/kg i.p.): 1/6
Number of dead mice, 2nd day (ICR mice; female, 91.8 mg/kg i.p.): 1/6
Number of dead mice, 3rd day (ICR mice; female, 91.8 mg/kg i.p.): 2/5
Number of dead mice, 4th day (ICR mice; female, 91.8 mg/kg i.p.): 2/3
Number of dead mice, 5th day (ICR mice; female, 91.8 mg/kg i.p.): 1/1
Lethality (ICR mice; female, 91.8 mg/kg i.p.): 100.0
Number of dead mice for 7 days (ICR mice; male, 41.3 mg/kg i.p.): 4/6
Number of dead mice, 1st day (ICR mice; male, 41.3 mg/kg i.p.): 0/6
Number of dead mice, 4th day (ICR mice; male, 41.3 mg/kg i.p.): 1/6
Number of dead mice, 5th day (ICR mice; male, 41.3 mg/kg i.p.): 1/5
Number of dead mice, 6th day (ICR mice; male, 41.3 mg/kg i.p.): 2/4
Lethality (ICR mice; male, 41.3 mg/kg i.p.): 66.7
Number of dead mice for 7 days (ICR mice; male, 54.9 mg/kg i.p.): 4/6
Number of dead mice, 1st day (ICR mice; male, 54.9 mg/kg i.p.): 0/6
Number of dead mice, 2nd day (ICR mice; male, 54.9 mg/kg i.p.): 1/6
Number of dead mice, 3rd day (ICR mice; male, 54.9 mg/kg i.p.): 1/5
Number of dead mice, 4th day (ICR mice; male, 54.9 mg/kg i.p.): 1/4
Number of dead mice, 5th day (ICR mice; male, 54.9 mg/kg i.p.): 1/3
Lethality (ICR mice; male, 54.9 mg/kg i.p.): 66.7
Number of dead mice for 7 days (ICR mice; male, 71.4 mg/kg i.p.): 5/6
Number of dead mice, 1st day (ICR mice; male, 71.4 mg/kg i.p.): 0/6
Number of dead mice, 4th day (ICR mice; male, 71.4 mg/kg i.p.): 2/6
Number of dead mice, 5th day (ICR mice; male, 71.4 mg/kg i.p.): 2/4
Number of dead mice, 6th day (ICR mice; male, 71.4 mg/kg i.p.): 1/2
Lethality (ICR mice; male, 71.4 mg/kg i.p.): 83.3
Number of dead mice for 7 days (ICR mice; male, 91.8 mg/kg i.p.): 6/6
Number of dead mice, 1st day (ICR mice; male, 91.8 mg/kg i.p.): 0/6
Number of dead mice, 2nd day (ICR mice; male, 91.8 mg/kg i.p.): 3/6
Number of dead mice, 4th day (ICR mice; male, 91.8 mg/kg i.p.): 1/3
Number of dead mice, 5th day (ICR mice; male, 91.8 mg/kg i.p.): 1/2
Number of dead mice, 6th day (ICR mice; male, 91.8 mg/kg i.p.): 1/1
Lethality (ICR mice; male, 91.8 mg/kg i.p.): 100.0

O=C1[O][Pt-2]2([NH2+]CC3OCOC3C[NH2+]2)[O]C(=O)C12CCC2 [Example 21, cis-cyclobutane-1,1-dicarboxylato[(4S,5S)-4,5-bis(aminomethyl)-1,3-dioxolane]platinum(II)]
Solubility in water [2]: 3100 µg/mL
IC50 (concentration required for 50% inhibition of growth) [1]: 2.08 µg/mL
